Source: US9661854B2, “Molecules having pesticidal utility, and intermediates, compositions, and processes, related thereto” (Dow AgroSciences LLC, priority 2015, dated 2017)

Tests used:
Assay type in all cases: in vivo
[1] = test system: Cabbage Looper (Trichoplusia ni, TRIPNI); test: Bioassay on Cabbage Looper (CL), 128-well diet tray assay; settings: 168 h, 50 μg/cm^2 on artificial diet, second instar larvae, 25° C., five to seven days, average of eight wells, read-out: CL % Control (or Mortality) rating
Summary of the method: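 Second-instar larvae (one to five per well) placed on artificial diet treated with 50 μg/cm^2 test molecule in 90:10 acetone-water, dried; eight wells per molecule. Held at 25° C., 14:10 light-dark, for five to seven days. Percent mortality scored per well and averaged over the eight wells.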

[2] = test system: Yellow Fever Mosquito (Aedes aegypti, AEDSAE); settings: about 1 day-old larvae, master plate 4000 ppm solution diluted, room temperature, scored after 3 days
Protocol: Example B: Bioassays on Yellow Fever Mosquito (Aedes aegypti, AEDSAE (“YFM”)
Certain molecules disclosed in this document were tested against YFM using procedures described in the following paragraph. In the reporting of the results, the “YFM Rating Table” was used (See Table Section).
Master plates containing 400 μg of a molecule dissolved in 100 μL of dimethyl sulfoxide (DMSO) (equivalent to a 4000 ppm solution) are used. A master plate of assembled molecules contains 15 μL per well. To this plate, 135 μL of a 90:10 water/acetone mixture is added to each well. A robot (Biomek® NXP Laboratory Automation Workstation) is programmed to dispense 15 μL aspirations from the master plate into an empty 96-well shallow plate (“daughter” plate). There are 6 reps (“daughter” plates) created per master. The created “daughter” plates are then immediately infested with YFM larvae.
The day before plates are to be treated, mosquito eggs are placed in Millipore water containing liver powder to begin hatching (4 g into 400 mL). After the “daughter” plates are created using the robot, they are infested with 220 μL of the liver powder/larval mosquito mixture (about 1 day-old larvae). After plates are infested with mosquito larvae, a non-evaporative lid is used to cover the plate to reduce drying. Plates are held at room temperature for 3 days prior to grading. After 3 days, each well is observed and scored based on mortality. The results are indicated in the table entitled “Table ABC: Biological Results” (See Table Section).

[3] = test system: Beet Armyworm (Spodoptera exigua, LAPHEG); test: Bioassay on Beet Armyworm (BAW), 128-well diet tray assay; settings: 168 h, 50 μg/cm^2 on artificial diet, second instar larvae, 25° C., five to seven days, average of eight wells, read-out: BAW % Control (or Mortality) rating
Summary of the method: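 Second-instar larvae, one to five per well, fed artificial diet surface-treated with 50 μg/cm^2 test molecule in 90:10 acetone-water, dried before infestation; eight wells per molecule. Held at 25 °C, 14:10 light-dark for five to seven days; percent mortality averaged over wells.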

| SMILES | mortality at 50 µg/cm2 [1] [%] | YFM % Control (or Mortality) rating [2] | mortality at 50 µg/cm2 [3] [%] |
| --- | --- | --- | --- |
| Cc1ccc(OC(C)(C)C)c(N2C(=O)CS/C2=N\C(=O)Nc2ccc(CCc3ncn(-c4ccc(OC(F)(F)F)cc4)n3)cc2)c1 [F14, (Z)-1-(3-(2-(tert-Butoxy)-5-methylphenyl)-4-oxothiazolidin-2-ylidene)-3-(4-(2-(1-(4-(trifluoromethoxy)phenyl)-1H-1,2,4-triazol-3-yl)ethyl)phenyl)urea] | 50 to 100 | A (80-100) | 50 to 100 |
| Cc1ccc(C(C)C)c(N2C(=O)CS/C2=N\C(=O)Nc2ccc(CC(C)c3ncn(-c4ccc(OC(F)(F)F)cc4)n3)cc2)c1 (centres unmarked) [F15, (Z)-1-(3-(2-Isopropyl-5-methylphenyl)-4-oxothiazolidin-2-ylidene)-3-(4-(2-(1-(4-(trifluoromethoxy)phenyl)-1H-1,2,4-triazol-3-yl)propyl)phenyl)urea] | 50 to 100 | A (80-100) | 50 to 100 |
| Cc1ccc(C(C)C)c(N2C(=O)CS/C2=N\C(=O)Nc2ccc(CCc3ncn(-c4ccc(OC(F)(F)F)cc4)n3)c(F)c2)c1 [F23, (Z)-1-(3-Fluoro-4-(2-(1-(4-(trifluoromethoxy)phenyl)-1H-1,2,4-triazol-3-yl)ethyl)phenyl)-3-(3-(2-isopropyl-5-methylphenyl)-4-oxothiazolidin-2-ylidene)urea] | 50 to 100 | A (80-100) | 50 to 100 |
| CCCc1ccc(C)cc1N1C(=O)CS/C1=N\C(=O)Nc1ccc(CCc2ncn(-c3ccc(OC(F)(F)F)cc3)n2)cc1F [F26, (Z)-1-(2-Fluoro-4-(2-(1-(4-(trifluoromethoxy)phenyl)-1H-1,2,4-triazol-3-yl)ethyl)phenyl)-3-(3-(5-methyl-2-propylphenyl)-4-oxothiazolidin-2-ylidene)urea] | 50 to 100 | A (80-100) | 50 to 100 |
| Cc1ccc(C(C)C)c(N2C(=O)CS/C2=N\C(=O)Nc2ccc(/C=C/c3ncn(-c4ccc(OC(F)(F)F)cc4)n3)cc2)c1 [F38, 1-((Z)-3-(2-isopropyl-5-methylphenyl)-4-oxothiazolidin-2-ylidene)-3-(4-((E)-2-(1-(4-(trifluoromethoxy)phenyl)-1H-1,2,4-triazol-3-yl)vinyl)phenyl)urea] | 50 to 100 | A (80-100) | 50 to 100 |
| CCC(C)Oc1ccc(C)cc1N1C(=O)CS/C1=N\C(=O)Nc1ccc(/C=C/c2ncn(-c3ccc(OC(F)(F)F)cc3)n2)cc1F (centres unmarked) [F60, 1-((Z)-3-(2-(sec-Butoxy)-5-methylphenyl)-4-oxothiazolidin-2-ylidene)-3-(2-fluoro-4-((E)-2-(1-(4-(trifluoromethoxy)phenyl)-1H-1,2,4-triazol-3-yl)vinyl)phenyl)urea] | 50 to 100 | A (80-100) | 50 to 100 |
| CC(C)c1ccc(C(F)(F)F)cc1N1C(=O)CS/C1=N\C(=O)Nc1ccc(/C=C/c2ncn(-c3ccc(OC(F)(F)F)cc3)n2)cc1F [F64, 1-(2-fluoro-4-((E)-2-(1-(4-(trifluoromethoxy)phenyl)-1H-1,2,4-triazol-3-yl)vinyl)phenyl)-3-((Z)-3-(2-isopropyl-5-(trifluoromethyl)phenyl)-4-oxothiazolidin-2-ylidene)urea] | 50 to 100 |  | 50 to 100 |
| CC(C)c1ccc(C(F)(F)F)cc1N1C(=O)CS/C1=N\C(=O)Nc1ccc(/C=C/c2ncn(-c3ccc(OC(F)(F)F)cc3)n2)cc1 [F65, 1-((Z)-3-(2-isopropyl-5-(trifluoromethyl)phenyl)-4-oxothiazolidin-2-ylidene)-3-(4-((E)-2-(1-(4-(trifluoromethoxy)phenyl)-1H-1,2,4-triazol-3-yl)vinyl)phenyl)urea] | 50 to 100 |  | 50 to 100 |
| Cc1ccc(C2CC2(F)F)c(N2C(=O)CS/C2=N\C(=O)Nc2ccc(/C=C/c3ncn(-c4ccc(OC(F)(F)F)cc4)n3)cc2)c1 (centres unmarked) [F66, 1-((Z)-3-(2-(2,2-Difluorocyclopropyl)-5-methylphenyl)-4-oxothiazolidin-2-ylidene)-3-(4-((E)-2-(1-(4-(trifluoromethoxy)phenyl)-1H-1,2,4-triazol-3-yl)vinyl)phenyl)urea] | 50 to 100 |  | 50 to 100 |
| Cc1ccc(C2CC2(F)F)c(N2C(=O)CS/C2=N\C(=O)Nc2ccc(/C=C/c3ncn(-c4ccc(OC(F)(F)F)cc4)n3)cc2F)c1 (centres unmarked) [F67, 1-((Z)-3-(2-(2,2-difluorocyclopropyl)-5-methylphenyl)-4-oxothiazolidin-2-ylidene)-3-(2-fluoro-4-((E)-2-(1-(4-(trifluoromethoxy)phenyl)-1H-1,2,4-triazol-3-yl)vinyl)phenyl)urea] | 50 to 100 |  | 50 to 100 |
| COCc1ccc(C)cc1N1C(=O)CS/C1=N\C(=O)Nc1c(F)cc(/C=C/c2ncn(-c3ccc(OC(F)(F)F)cc3)n2)cc1F [F68, 1-(2,6-Difluoro-4-((E)-2-(1-(4-(trifluoromethoxy)phenyl)-1H-1,2,4-triazol-3-yl)vinyl)phenyl)-3-((Z)-3-(2-(methoxymethyl)-5-methylphenyl)-4-oxothiazolidin-2-ylidene)urea] | 50 to 100 |  | 50 to 100 |
| Cc1ccc(C(C)C)c(N2C(=O)CS/C2=N\C(=O)Nc2ccc(/C=C/c3ncn(-c4ccc(OC(F)(F)F)cn4)n3)cc2)c1 [F69, 1-((Z)-3-(2-isopropyl-5-methylphenyl)-4-oxothiazolidin-2-ylidene)-3-(4-((E)-2-(1-(5-(trifluoromethoxy)pyridin-2-yl)-1H-1,2,4-triazol-3-yl)vinyl)phenyl)urea] | 50 to 100 |  | 50 to 100 |
| Cc1ccc(C(C)C)c(N2C(=O)CS/C2=N\C(=O)Nc2ccc(/C=C/c3ncn(-c4ccc(OC(F)(F)F)cc4)n3)cn2)c1 [F70, 1-((Z)-3-(2-isopropyl-5-methylphenyl)-4-oxothiazolidin-2-ylidene)-3-(5-((E)-2-(1-(4-(trifluoromethoxy)phenyl)-1H-1,2,4-triazol-3-yl)vinyl)pyridin-2-yl)urea] | 50 to 100 |  | 50 to 100 |
| Cc1ccc(C(C)C)c(N2C(=O)CS/C2=N\C(=O)Nc2ccc(/C=C/c3ncn(-c4ccc(OC(F)(F)F)cn4)n3)cn2)c1 [F71, 1-((Z)-3-(2-isopropyl-5-methylphenyl)-4-oxothiazolidin-2-ylidene)-3-(5-((E)-2-(1-(5-(trifluoromethoxy)pyridin-2-yl)-1H-1,2,4-triazol-3-yl)vinyl)pyridin-2-yl)urea] | 50 to 100 |  | 50 to 100 |
| Cc1ccc(C(C)C)c(N2C(=O)CS/C2=N\C(=O)Nc2ccc(/C=C/c3ncn(-c4ncc(C(F)(F)F)cc4Cl)n3)cc2)c1 [F72, 1-(4-((E)-2-(1-(3-chloro-5-(trifluoromethyl)pyridin-2-yl)-1H-1,2,4-triazol-3-yl)vinyl)phenyl)-3-((Z)-3-(2-isopropyl-5-methylphenyl)-4-oxothiazolidin-2-ylidene)urea] | 50 to 100 |  | 50 to 100 |
| Cc1ccc(C(C)C)c(N2C(=O)CS/C2=N\C(=O)Nc2ccc(C3CC3c3ncn(-c4ccc(OC(F)(F)F)cc4)n3)cc2)c1 (centres unmarked) [F73, (Z)-1-(3-(2-Isopropyl-5-methylphenyl)-4-oxothiazolidin-2-ylidene)-3-(4-(2-(1-(4-(trifluoromethoxy)phenyl)-1H-1,2,4-triazol-3-yl)cyclopropyl)phenyl)urea] | 50 to 100 |  | 50 to 100 |
| Cc1ccc(C(C)C)c(N2C(=O)CS/C2=N\C(=O)Nc2ccc(CCc3ncn(-c4ccc(OC(F)(F)F)cn4)n3)cc2)c1 [F74, (Z)-1-(3-(2-Isopropyl-5-methylphenyl)-4-oxothiazolidin-2-ylidene)-3-(4-(2-(1-(5-(trifluoromethoxy)pyridin-2-yl)-1H-1,2,4-triazol-3-yl)ethyl)phenyl)urea] | 50 to 100 |  | 50 to 100 |
| O=C(/N=C1\SCC(=O)N1c1cccnc1)Nc1ccc(CCc2ncn(-c3ccc(OC(F)(F)F)cc3)n2)cc1 [F75, (Z)-1-(4-Oxo-3-(pyridin-3-yl)thiazolidin-2-ylidene)-3-(4-(2-(1-(4-(trifluoromethoxy)phenyl)-1H-1,2,4-triazol-3-yl)ethyl)phenyl)urea] | 50 to 100 |  | 50 to 100 |
| O=C(/N=C1\SCC(=O)N1C1CCCCC1)Nc1ccc(/C=C/c2ncn(-c3ccc(OC(F)(F)F)cc3)n2)cc1F [F78, 1-((Z)-3-Cyclohexyl-4-oxothiazolidin-2-ylidene)-3-(2-fluoro-4-((E)-2-(1-(4-(trifluoromethoxy)phenyl)-1H-1,2,4-triazol-3-yl)vinyl)phenyl)urea] | 50 to 100 |  | 50 to 100 |
